These results are taken from BindingDB's records for patent US12344612 (Genentech, 2025).

The term Ki denotes a dissociation constant, usually derived from enzyme kinetics or from competition with a known ligand. Higher therefore signals weaker binding.

The experiment concerns the target T1, Receptor-interacting serine/threonine-protein kinase 1 (Homo sapiens, UniProt Q13546).
T1 sequence (Q13546 whole entry): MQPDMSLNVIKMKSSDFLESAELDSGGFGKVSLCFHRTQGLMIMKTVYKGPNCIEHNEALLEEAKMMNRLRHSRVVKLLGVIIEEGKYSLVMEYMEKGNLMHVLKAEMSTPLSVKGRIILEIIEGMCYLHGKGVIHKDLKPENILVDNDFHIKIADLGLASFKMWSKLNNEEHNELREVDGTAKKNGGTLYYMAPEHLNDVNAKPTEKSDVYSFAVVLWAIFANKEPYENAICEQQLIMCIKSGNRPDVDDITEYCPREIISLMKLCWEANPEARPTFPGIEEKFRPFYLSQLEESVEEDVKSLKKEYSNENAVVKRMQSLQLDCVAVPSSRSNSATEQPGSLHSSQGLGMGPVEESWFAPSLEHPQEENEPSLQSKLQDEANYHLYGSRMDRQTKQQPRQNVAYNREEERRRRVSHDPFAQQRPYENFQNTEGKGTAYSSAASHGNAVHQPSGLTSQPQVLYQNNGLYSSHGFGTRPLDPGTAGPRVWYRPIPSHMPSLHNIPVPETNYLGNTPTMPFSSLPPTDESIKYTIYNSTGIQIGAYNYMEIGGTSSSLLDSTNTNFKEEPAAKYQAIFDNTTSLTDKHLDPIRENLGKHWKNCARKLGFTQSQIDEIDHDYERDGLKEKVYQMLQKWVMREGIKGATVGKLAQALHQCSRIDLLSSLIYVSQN
As to the kind of experiment: Not found.
From the text: Not found

Each structure is given as a SMILES string.

As to `O=C(c1nc2n(n1)CC[C@H]2c1ccccc1)C1CC1` (single isomer, unassigned) [US12344612, Example 10], the inhibition constant (Ki) is 51 nM.
